Square brackets hold non-standard residues; d marks the D form. Ends that are not written are not given here. * marks the point of attachment. Pentanoyl(4-Me) = CC(C)CCC(=O)*; Orn = NCCC[C@H](N)C(=O)O; Aib = CC(C)(N)C(=O)O
Test: Food intake assay in overnight fasted mice
Type: in vivo
Details: 25 nmol/kg intraperitoneal
Protocol: Female NIH/Swiss mice (8-14 weeks old) were group housed with a 12:12 hour light:dark cycle. Water and a standard pelleted mouse chow diet are available ad libitum, except as noted. Animals are fasted starting at approximately 1500 hrs, 1 day prior to experiment.
The effects of treatment on food intake are expressed as % change relative to control.

Substance	cumulative food intake compared to vehicle, 30 min [%]	cumulative food intake compared to vehicle, 60 min [%]	cumulative food intake compared to vehicle, 120 min [%]	cumulative food intake compared to vehicle, 180 min [%]
KCNTATCVLGRLSQELHRLQTLLQTYPRTNTGSNTY [Compound 48]	−54	−51	−36	
KCNTATCVLGRLADALHRLQTYPRTNTGSNTY [Compound 95]	−81	−69	−34	−31
KCNTASCVLGRLSQELHRLQTYPRTNTGSNTY [Compound 36]	−34	−22	−24	−25
SCNTATCVLGRLADFLHRLQTYPRTNTGSNTY [Compound 97]	−78	−76	−60	−40
KCNTATCVLGKLSQELHKLQTYPRTNTGSNTY [Compound 49]	−33	−26	−25	
KCNTAVCVLGRLSQELHRLQTYPRTNTGSNTY [Compound 37]	−3	−2	−16	
KCNTATCVLGRLSQELHRLQTYPTNVGSEAF [Compound 85]	3	−16	−16	
KCNTATCATQRLSQELHRLQTYPRTNVGSNTY [Compound 52]	−29	−24	−23	
KCNTATCVLGRLADFLHRFQTFPRTNTGSGTP [Compound 109]	−61	−54	−43	
KCNTATCVLGRLADFLHRFQTFPRTNTGSNTY [Compound 107]	−84	−78	−47	
KCNTATCVLGRLSQELHRLQTYPRTNTGSGTP [Compound 25]	−29	−34	−45	
KCNTATCVLGRLSQELHRLQTLPPTNVGSNTY [Compound 13]	−40	−33	−25	−24
KCNTATCVLG(homoR)LSQELH(homoR)LQTYPRTNTGSNTY [Compound 74]	−42	−32	−31	
KCNTATCVLGRLSQELH[Orn]LQTYPRTNTGSNTY (cysteine pairing not given here) [Compound 77]	−46	−43	−44	
KCNTATCVLGRLSRSLHRLQTYPRTNTGSNTY [Compound 86]	−44	−26	−16	
KCNTSTCATQRLANELVRLQTYPRTNVGSNTY [Compound 53]	−92	−89	−36	
KCNTATCVLGRLAAALHRLQTYPRTNTGSNTY [Compound 113]	−79	−86	−55	
CSNLSACVLGRLSQELHRLQTYPRTNTGSNTY [Compound 23]	8	0	−19	−12

Substance	cumulative food intake compared to vehicle, 30 min [%]	cumulative food intake compared to vehicle, 60 min [%]	cumulative food intake compared to vehicle, 120 min [%]	cumulative food intake compared to vehicle, 180 min [%]
KCNTATCVLGRLSQELHRLQTYPPTNTGSNTY [Compound 12]	−43	−39	−37	−32
KCNAATCVLGRLSQELHRLQTYPRTNTGSNTY [Compound 17]	−42	−30	−30	−25
isocaproyl-STAVLGRLSQELHRLQTYPRTNTGSNTY ({Pentanoyl(4-Me)}-STAVLGRLSQELHRLQTYPRTNTGSNTY-NH2; SMILES CC(C)CCC(=O)N[C@@H](CO)C(=O)N[C@H](C(=O)N[C@@H](C)C(=O)N[C@H](C(=O)N[C@@H](CC(C)C)C(=O)NCC(=O)N[C@@H](CCCNC(=N)N)C(=O)N[C@@H](CC(C)C)C(=O)N[C@@H](CO)C(=O)N[C@@H](CCC(N)=O)C(=O)N[C@@H](CCC(=O)O)C(=O)N[C@@H](CC(C)C)C(=O)N[C@@H](Cc1c[nH]cn1)C(=O)N[C@@H](CCCNC(=N)N)C(=O)N[C@@H](CC(C)C)C(=O)N[C@@H](CCC(N)=O)C(=O)N[C@H](C(=O)N[C@@H](Cc1ccc(O)cc1)C(=O)N1CCC[C@H]1C(=O)N[C@@H](CCCNC(=N)N)C(=O)N[C@H](C(=O)N[C@@H](CC(N)=O)C(=O)N[C@H](C(=O)NCC(=O)N[C@@H](CO)C(=O)N[C@@H](CC(N)=O)C(=O)N[C@H](C(=O)N[C@@H](Cc1ccc(O)cc1)C(N)=O)[C@@H](C)O)[C@@H](C)O)[C@@H](C)O)[C@@H](C)O)C(C)C)[C@@H](C)O) [Compound 20]	−9	−21	−30	−31
KCNTATCVLGRLAEFLHRLQTYPRTNTGSNTY [Compound 104]	−69	−67	−54	
KCNTATCVLGRLTDYLHRLQTYPRTNTGSNTY [Compound 105]	−83	−82	−52	
KCNTATCVLGRLNEYLHRLQTYPRTNTGSNTY [Compound 101]	−52	−48	−35	
CNTATCVLGRLADFLHRLQTYPRTNTGSNTY [Compound 110]	−80	−72	−59	
KCNTATCVLGRLTEFLHRLQTYPRTNTGSNTY [Compound 103]	−50	−44	−30	
KCNTATCVLGRLFDFLHRLQTYPRTNTGSNTY [Compound 112]	−62	−65	−50	
KCNTATCVLGRLSQELHRLQTYPRTNTGSKAF [Compound 93]	−43	−30	−27	−29
Isocaproyl-STAVL(Aib)RLSQELRLQTYPRTNTGSGTP ({Pentanoyl(4-Me)}-STAVL[Aib]RLSQELRLQTYPRTNTGSGTP-NH2; SMILES CC(C)CCC(=O)N[C@@H](CO)C(=O)N[C@H](C(=O)N[C@@H](C)C(=O)N[C@H](C(=O)N[C@@H](CC(C)C)C(=O)NC(C)(C)C(=O)N[C@@H](CCCNC(=N)N)C(=O)N[C@@H](CC(C)C)C(=O)N[C@@H](CO)C(=O)N[C@@H](CCC(N)=O)C(=O)N[C@@H](CCC(=O)O)C(=O)N[C@@H](CC(C)C)C(=O)N[C@@H](CCCNC(=N)N)C(=O)N[C@@H](CC(C)C)C(=O)N[C@@H](CCC(N)=O)C(=O)N[C@H](C(=O)N[C@@H](Cc1ccc(O)cc1)C(=O)N1CCC[C@H]1C(=O)N[C@@H](CCCNC(=N)N)C(=O)N[C@H](C(=O)N[C@@H](CC(N)=O)C(=O)N[C@H](C(=O)NCC(=O)N[C@@H](CO)C(=O)NCC(=O)N[C@H](C(=O)N1CCC[C@H]1C(N)=O)[C@@H](C)O)[C@@H](C)O)[C@@H](C)O)[C@@H](C)O)C(C)C)[C@@H](C)O) [Compound 29]	4	−1	−25	
KCNTATCVLGRLADFLHRLQTYPRTNTGSNTY [Compound 88]	−64	−61	−39	−22
DSNLSTKVLGRLSQELHRLQTYPRTNTGSNTY [Compound 68]	−10	−13	−21	
Ac-ACNTATCVLGRLSQELHK(PEG5000)LQTYPRTNTGSNTY [Compound 47]	−5	−13	−27	
ACDTATCVLGRLSQELHRLQTYPRTNTGSNTY [Compound 92]	−31	−29	−30	−27
KCNTATCMLGRYTQDFHRLQTYPRTNTGSNTY [Compound 66]	−13	−15	−28	
KCNTSTCVLGRLSQELHRLQTYPRTNTGSNTY [Compound 50]	−70	−62	−48	
